Assay results taken from patent US20080299239A1, “Inhibitor of Glucose Absorption and Method for Producing the Same” (NICHIREI FOODS INC., priority 2003, published 2008).

Tested on: Caco-2 cells
Test: Test of glucose uptake by cultured Caco-2 cells derived from human intestinal tract
Format: cell-based
Details: 250 μg/ml, 15 min preincubation, 10 min incubation, differentiated Caco-2 cells; for glucose transportation (3H-labeled glucose uptake): FIG. 1, relative to control; for 3-O-methyl glucose transportation (3H-labeled uptake): FIG. 2, relative to control
Experimental: Cultured Caco-2 cells derived from human intestinal tracts were monolayer-cultured on a plate for about 10 days and then differentiated. A DMEM medium containing 10% fetal calf serum was used. Pigment 1 and pigment 2 (250 μg/ml each) were added to the differentiated Caco-2 cells, the resultants were preincubated for 15 minutes, and ^3H-labeled glucose or 3-O-methyl glucose was then added thereto, followed by incubation for 10 minutes. ^3H incorporated into the cells was analyzed to determine the amount of glucose or methyl glucose transported.

CC1O[C@@H](Oc2cc3c(O)cc(O)cc3[o+]c2-c2ccc(O)cc2)[C@@H](O)C(O)[C@H]1O (stereo partly shown) [pigment 2, pelargonidin-3-rhamnoside]
glucose transportation (3H-labeled glucose uptake): specifically inhibited | 3-O-methyl glucose transportation (3H-labeled uptake): specifically inhibited

C[C@@H]1O[C@@H](Oc2cc3c(O)cc(O)cc3[o+]c2-c2ccc(O)c(O)c2)[C@H](O)[C@H](O)[C@H]1O.[Cl-] [pigment 1, cyanidin-3-rhamnoside]
glucose transportation (3H-labeled glucose uptake): specifically inhibited | 3-O-methyl glucose transportation (3H-labeled uptake): specifically inhibited
